Measurements taken from patent publication US11571423B2, “Small molecule modulators of human sting” (Curadev Pharma Limited, priority 2017, dated 2023).

Assays:
hSTING(R232) = hSTING(R232) (Homo sapiens, UniProt Q86WV6, H232R); experiment: Luciferase reporter assay in HEK293T-hSTING-Luciferase cells, R232 (wild type) human STING; type: cell-based; conditions: 20 hr stimulation, read-out: R232 human activity (EC50 range)
In short: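 After 20 hr compound stimulation of 5×10^5 cells, secreted luciferase in the supernatant was measured by luminescence; values are fold-induction over baseline and EC50. The line is a clonal HEK293T stably carrying a STING plasmid (pUNO-1) and a luciferase reporter under five tandem ISREs fused to an ISG54 promoter.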

[1] = target: cynomolgus monkey STING protein (Macaca fascicularis, UniProt A0A2R3XZA6); experiment: Luciferase reporter assay, cynomolgus monkey STING overexpressed in HEK293T cells; type: cell-based; conditions: cynomolgus monkey STING overexpressed in HEK293T cells; read-out: Cynomolgus monkey STING activity (EC50 range)
In short: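 HEK293T cells overexpressing cynomolgus STING with a secreted luciferase reporter were stimulated with compound for 20 hr. Supernatant reporter activity was then measured by Quanti-Luc luminescence, and EC50 values were derived.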

hSTING(H232) = hSTING(H232) (Homo sapiens, UniProt Q86WV6); experiment: Luciferase reporter assay in HEK293T-hSTING-Luciferase cells, H232/REF polymorph; type: cell-based; conditions: H232/REF polymorph of human STING, EC50 range class
In short: (§1)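 HEK293T cells stably co-express the hSTING variant (hEF1-HTLV promoter) and an ISRE/ISG54 IRF-inducible luciferase reporter. Clones with minimal ligand-independent activation were used. Cells were stimulated with compounds for 20 hr, and secreted luciferase in the supernatant was read by luminescence to give EC50.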

hSTING(HAQ) = hSTING(HAQ) (Homo sapiens, UniProt Q86WV6, G230A/H232R/R293Q/R71H); experiment: Luciferase reporter assay in HEK293T-hSTING-Luciferase cells, HAQ polymorph; type: cell-based; conditions: HAQ polymorph of human STING, EC50 range class
In short: as §1

IRF pathway = experiment: Reporter gene expression assay in THP1-Dual cells, IRF axis (secreted Lucia luciferase); type: cell-based, human; conditions: Homo sapiens, 20 hr stimulation, EC50 range class, read-out: THP-IRF activity
In short: (§2)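 Human THP-1 monocyte-derived cells with two inducible reporters: 5×10^5 cells seeded and stimulated with compounds for 20 hr. SEAP (QUANTI-Blue) and Lucia luciferase (QUANTI-Luc) measured in supernatant; EC50 values reported as ranges.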

NF-κB pathway = experiment: Reporter gene expression assay in THP1-Dual cells, NFkB axis (secreted SEAP); type: cell-based, human; conditions: Homo sapiens, 20 hr stimulation, EC50 range class, read-out: THP-NFκB activity
In short: as §2

Sequence of hSTING(R232) (Q86WV6 whole entry H232R, the tested form may be a part): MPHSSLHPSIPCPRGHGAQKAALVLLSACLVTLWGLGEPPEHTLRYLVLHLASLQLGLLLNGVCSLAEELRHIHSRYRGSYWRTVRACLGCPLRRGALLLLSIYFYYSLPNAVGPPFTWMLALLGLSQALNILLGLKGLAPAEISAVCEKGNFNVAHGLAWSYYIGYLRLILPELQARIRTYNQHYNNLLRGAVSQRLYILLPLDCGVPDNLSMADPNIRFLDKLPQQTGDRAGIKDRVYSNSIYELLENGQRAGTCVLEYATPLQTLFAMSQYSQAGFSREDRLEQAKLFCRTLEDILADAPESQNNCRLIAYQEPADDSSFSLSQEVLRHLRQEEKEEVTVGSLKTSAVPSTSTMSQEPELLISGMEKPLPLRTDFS
Sequence of hSTING(HAQ) (Q86WV6 whole entry R71H/G230A/H232R/R293Q): as the sequence (Q86WV6 whole entry H232R, the tested form may be a part) above, with R71H, G230A, R293Q counted along it
Sequence of cynomolgus monkey STING protein (A0A2R3XZA6 entry or part of it): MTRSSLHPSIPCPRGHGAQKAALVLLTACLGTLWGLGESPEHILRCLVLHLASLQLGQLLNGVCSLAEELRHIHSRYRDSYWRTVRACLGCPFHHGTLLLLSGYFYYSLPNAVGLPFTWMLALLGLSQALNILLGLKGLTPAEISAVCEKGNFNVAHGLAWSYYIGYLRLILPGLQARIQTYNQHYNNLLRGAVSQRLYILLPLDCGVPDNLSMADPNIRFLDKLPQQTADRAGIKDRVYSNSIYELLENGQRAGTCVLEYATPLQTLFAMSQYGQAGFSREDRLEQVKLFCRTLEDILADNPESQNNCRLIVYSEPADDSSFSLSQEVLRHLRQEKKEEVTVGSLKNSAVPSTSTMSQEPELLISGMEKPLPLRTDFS
Sequence of hSTING(H232) (Q86WV6 whole entry): as the sequence (Q86WV6 whole entry H232R, the tested form may be a part) above, with R232H counted along it

EC50 (hSTING(R232)) [µM]	EC50 [1] [µM]	EC50 (hSTING(H232)) [µM]	EC50 (hSTING(HAQ)) [µM]	EC50 (IRF pathway) [µM]	EC50 (NF-κB pathway) [µM]	Compound
< 1	< 1	< 1	< 1	< 1	< 1	CC(=O)Nc1ccc(COC(=O)Oc2cc(F)c(CN3C(=O)N(C)[C@@H](C)c4ccc(C(=O)NCc5c(F)cc(F)cc5F)cc43)c(F)c2)cc1 [Example 85, (S)-4-Acetamidobenzyl-(4-((3,4-dimethyl-2-oxo-7-((2,4,6-trifluorobenzyl)carbamoyl)-3,4-dihydroquinazolin-1(2H)-yl)methyl)-3,5-difluorophenyl) carbonate]
< 1	< 1	< 1	< 1	< 1	< 1	C[C@H]1c2ccc(C(=O)NCc3c(F)cc(F)cc3F)cc2N(Cc2cc(O)cc(F)c2F)C(=O)N1C [Example 281, (S)-1-(2,3-difluoro-5-hydroxybenzyl)-3,4-dimethyl-2-oxo-N-(2,4,6-trifluorobenzyl)-1,2,3,4-tetrahydroquinazoline-7-carboxamide]
< 1	< 1	< 1	< 1	< 1	< 1	Cc1nccc(CN2C(=O)N(C)[C@@H](C)c3ccc(C(=O)NCc4c(F)cc(F)cc4F)cc32)c1F [Example 261, (S)-1-((3-fluoro-2-methylpyridin-4-yl)methyl)-3,4-dimethyl-2-oxo-N-(2,4,6-trifluorobenzyl)-1,2,3,4-tetrahydroquinazoline-7-carboxamide]
< 1	< 1	< 1	< 1	< 1	< 1	C[C@H]1c2ccc(C(=O)NCc3c(F)cc(F)cc3F)cc2N(Cc2c(F)ccc(OCCO)c2Cl)C(=O)N1C [Example 137, (S)-1-(2-Chloro-6-fluoro-3-(2-hydroxyethoxy)benzyl)-3,4-dimethyl-2-oxo-N-(2,4,6-trifluorobenzyl)-1,2,3,4-tetrahydroquinazoline-7-carboxamide]
< 1	< 1	< 1	< 1	< 1	< 1	Cc1ncc(Cl)c(CN2C(=O)N(C)[C@@H](C)c3ccc(C(=O)NCc4c(F)cc(F)cc4F)cc32)c1F [Example 77, (S)-1-((5-chloro-3-fluoro-2-methylpyridin-4-yl)methyl)-3,4-dimethyl-2-oxo-N-(2,4,6-trifluorobenzyl)-1,2,3,4-tetrahydroquinazoline-7-carboxamide]
< 1	< 1	< 1	< 1	< 1	< 1	C[C@H]1c2ccc(C(=O)NCc3c(F)cc(F)cc3F)cc2N(Cc2c(Cl)ccc(F)c2F)C(=O)N1C [Example 177, (S)-1-(6-chloro-2,3-difluorobenzyl)-3,4-dimethyl-2-oxo-N-(2,4,6-trifluorobenzyl)-1,2,3,4-tetrahydroquinazoline-7-carboxamide]
< 1	< 1	< 1	< 1	< 1	< 1	C[C@H]1c2ccc(C(=O)NCc3c(F)cc(F)cc3F)cc2N(Cc2c(F)ccc(F)c2Cl)C(=O)N1C [Example 179, (S)-1-(2-chloro-3,6-difluorobenzyl)-3,4-dimethyl-2-oxo-N-(2,4,6-trifluorobenzyl)-1,2,3,4-tetrahydroquinazoline-7-carboxamide]
< 1	< 1	< 1	< 1	< 1	< 1	C[C@H]1c2ccc(C(=O)NCc3c(F)cc(F)cc3F)cc2N(Cc2cc(O)ccc2F)C(=O)N1C [Example 262, (S)-1-(2-fluoro-5-hydroxybenzyl)-3,4-dimethyl-2-oxo-N-(2,4,6-trifluorobenzyl)-1,2,3,4-tetrahydroquinazoline-7-carboxamide]
< 1	1 to 10	< 1	< 1	< 1	< 1	C[C@H]1c2ccc(C(=O)NCc3c(F)cc(F)cc3F)cc2N(Cc2c(F)ccc(OCCCO)c2F)C(=O)N1C [Example 257, (S)-1-(2,6-difluoro-3-(3-hydroxypropoxy)benzyl)-3,4-dimethyl-2-oxo-N-(2,4,6-trifluorobenzyl)-1,2,3,4-tetrahydroquinazoline-7-carboxamide]
< 1	< 1	< 1	< 1	< 1	< 1	Cc1nccc(CN2C(=O)N(C)C(C)c3ccc(C(=O)NCc4c(F)cc(F)cc4F)cc32)c1F (stereo not drawn) [Example 180, 1-((3-fluoro-2-methylpyridin-4-yl)methyl)-3,4-dimethyl-2-oxo-N-(2,4,6-trifluorobenzyl)-1,2,3,4-tetrahydroquinazoline-7-carboxamide]
< 1	< 1	< 1	< 1	1 to 10	1 to 10	C[C@H]1c2ccc(C(=O)NCc3c(F)cc(F)cc3F)cc2N(Cc2c(F)cc(OCCO)cc2F)C(=O)N1C [Example 80, (S)-1-(2,6-Difluoro-4-(2-hydroxyethoxy)benzyl)-3,4-dimethyl-2-oxo-N-(2,4,6-trifluorobenzyl)-1,2,3,4-tetrahydroquinazoline-7-carboxamide]
< 1	< 1	< 1	< 1	< 1	< 1	C[C@H]1c2ccc(C(=O)NCc3c(F)cc(F)cc3F)cc2N(Cc2c(F)cc(OCCNS(C)(=O)=O)cc2F)C(=O)N1C [Example 290, (S)-1-(2,6-difluoro-4-(2-(methylsulfonamido)ethoxy)benzyl)-3,4-dimethyl-2-oxo-N-(2,4,6-trifluorobenzyl)-1,2,3,4-tetrahydroquinazoline-7-carboxamide]
< 1	< 1	< 1	< 1	< 1	< 1	Cc1ccc(Cl)c(CN2C(=O)N(C)[C@@H](C)c3ccc(C(=O)NCc4c(F)cc(F)cc4F)cc32)c1F [Example 169, (S)-1-(6-chloro-2-fluoro-3-methylbenzyl)-3,4-dimethyl-2-oxo-N-(2,4,6-trifluorobenzyl)-1,2,3,4-tetrahydroquinazoline-7-carboxamide]
< 1	< 1	< 1	< 1	< 1	< 1	C[C@H]1c2ccc(C(=O)NCc3c(F)cc(F)cc3F)cc2N(Cc2c(O)ccc(F)c2F)C(=O)N1C [Example 242, (S)-1-(2,3-difluoro-6-hydroxybenzyl)-3,4-dimethyl-2-oxo-N-(2,4,6-trifluorobenzyl)-1,2,3,4-tetrahydroquinazoline-7-carboxamide]
< 1	< 1	< 1	< 1	< 1	< 1	C[C@H]1c2ccc(C(=O)NCc3c(F)cc(F)cc3F)cc2N(Cc2c(F)cc(O)cc2Cl)C(=O)N1C [Example 298, (S)-1-(2-chloro-6-fluoro-4-hydroxybenzyl)-3,4-dimethyl-2-oxo-N-(2,4,6-trifluorobenzyl)-1,2,3,4-tetrahydroquinazoline-7-carboxamide]
